The record followed here is patent US10934263B2, “Charged ion channel blockers and methods for use” (Nocion Therapeutics, Inc., priority 2019, dated 2021).

For series [1], the target named is T1, NaV1.7 (Homo sapiens, UniProt Q15858).
T1 construct: expressed in transfected cells; tetracycline-inducible, kept under hygromycin and blasticidin
Nature of the series: Whole cell patch clamp, internal block of NaV1.7 current (compound in internal solution). The series is classed as cell-based. The following applies: compound applied internally, manual patch clamp, read-out: Nav1.7 Intracellular Inhibition. The procedure, abridged: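 Tetracycline-induced NaV1.7 cells, whole-cell patch clamp at room temperature with compound in CsCl internal solution (pH 7.2), Ringer bath (pH 7.4). Held at −100 mV, steps to −20 mV; after baseline, four 30-s 5 Hz trains. Peak inward current at end of last train divided by baseline gives fraction remaining.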
(In general: Patch clamp records ionic current or voltage across a cell membrane.)

Series [2] has as its target T1, NaV1.7. The experiment in a line: Whole cell patch clamp, external block of NaV1.7 current (compound in external solution). It is filed as cell-based. The note with it: compound applied externally, read-out: Nav1.7 Extracellular Inhibition; for inhibition at 30 µM: % inhibition at test concentration 30 μM. How it is done:
Representative compounds of the invention were synthesized according to the described methods and tested for the ability to inhibit voltage-gated sodium channels.
NaV1.7 was expressed upon induction with tetracycline. Cells were cultured in DMEM containing 10% dialyzed Fetal Bovine Serum (VWR, Radnor, Pa.), 1% Glutamax (VWR, Radnor, Pa.), 1% Penicillin-Streptomycin (VWR, Radnor, Pa.), 100 mg/L Hygromycin (Thermo Fisher Scientific, Waltham, Mass. and 5 mg/L Blasticidin (Alfa Aesar, Haverhill, Mass.). Cells were grown and maintained at 37° C. in a humidified environment containing 10% CO2 in air. Cells were detached from the culture flask for passage and harvested using 0.05% Trypsin-EDTA (Thermo Fisher Scientific, Waltham, Mass.). To induce NaV1.7, cells were induced with tetracycline (0.1-1 μg/mL, IBI Scientific, Peosta, Iowa) the day before recording and plated onto 24-well plates. Cells were washed with DPBS (VWR, Radnor, Pa.), trypsinized and then triturated five times in 10 mL of growth media to break apart cell aggregates. For one 24-well plate, 2 mL of cell suspension was mixed with 23 mL of fresh growth media and 0.1-1 μg/mL tetracycline added. 1 ml of mixed media with cells was then added to each well of a 24-well plate, with a 12 mm coverslip already placed in the bottom of the well. Cells were then incubated in 37° C. and 10% CO2 overnight.
The intracellular solution contained the following (in mM) CsCl 135, NaCl 10, EGTA 10, HEPES 10, MgCl2 2, adjusted to pH 7.2 with CsOH. The external solution was a normal Ringer solution containing (in mM) NaCl 155, HEPES 10, glucose 10, KCl 3.5, CaCl2 1.5, MgCl2 1 adjusted to pH 7.4 with NaOH. CsCl is from Alfa Aesar, Haverhill, Mass. All other chemicals are from Sigma-Aldrich, St. Louis, Mo. In order to test the degree of internal block by test compounds the compounds were dissolved in internal solution at the indicated test concentration. […] In order to test the degree of external block by test compounds the compounds were dissolved in external solution at the indicated test concentration.
18-24 hours after cells were induced with tetracycline, coverslips were placed into a chamber filled with Normal Ringer solution at room temperature and the chamber placed on a microscope. Pipettes were pulled from borosilicate glass on a P97 puller (Sutter Instrument, Novato, Calif.) and polished with a MF-830 Microforge (Narishige International USA, Inc, Amityville, N.Y.) to have a resistance of 1.5-2.5 MΩ when filled with CsCl internal solution at room temperature. Healthy cells (those that are round and translucent with no visible blemishes) were chosen for seal formation. A seal was formed between the pipette and the cell, and a brief pulse of suction was used to “break in” and establish the whole-cell configuration. The membrane potential was held at −100 mV before the voltage protocol began. Only cells with series resistance between 1.5-5 MΩ were retained for analysis. The voltage protocol was as follows: Cells were held at −100 mV for 12 ms followed by a hyperpolarizing step to −105 mV for 12 ms to monitor the leak. Cells were then stepped back to −100 mV for 40 ms. Cells were then depolarized to −20 mV for 10 ms and then returned to −100 mV for 26 ms.
Once the recording was started, the voltage protocol was run at 30 second intervals for 5 minutes to get a stable baseline. This is followed by 5 Hz stimulation of the same voltage protocol run until the end of experiment. […] The test compound is added for 5 minutes before washing out with normal Ringer's solution. Currents were recorded using PatchMaster software with Heka EPC10 (HEKA Electronics, Lambrecht, Germany). Only cells with inward current amplitudes at −20 mV between 400 pA and 4 nA were accepted. In addition, cells having leak currents greater than 10% of their current amplitudes were discarded. […]

The nature of series [3]: PAMPA membrane permeability assay. The following applies: PAMPA permeability coefficient, GIT lipid, buffer pH 7.4, 4 hours incubation. The series is classed as in vitro ADME. The procedure, abridged:
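Passive permeability across GIT lipid-coated artificial membrane; compounds at 50 μM in pH 7.4 buffer in donor wells, incubated 4 h. Donor, acceptor and reference concentrations read by UV spectroscopy, permeability coefficient calculated from spectral AUCs.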
For orientation: In PAMPA a lipid-coated filter parts donor from acceptor wells.

In series [4] the target is T1, NaV1.7. The experiment in a line: Automated patch clamp (Qube 384), internal block of NaV1.7 in HEK293 cells. The series is classed as cell-based. The following applies: compound in internal solution, read-out: Nav1.7 Intracellular Inhibition (IC50). Here is the method: (§1) NaV1.7 was expressed in HEK293 cells upon induction with tetracycline. Cells were cultured in DMEM containing 10% dialyzed Fetal Bovine Serum (VWR, Radnor, Pa.), 1% Glutamax (VWR, Radnor, Pa.), 1% Penicillin-Streptomycin (VWR, Radnor, Pa.), 100 mg/L Hygromycin (Thermo Fisher Scientific, Waltham, Mass. and 5 mg/L Blasticidin (Alfa Aesar, Haverhill, Mass.). Cells were grown and maintained at 37° C. in a humidified environment containing 10% CO2 in air. Cells were detached from the culture flask for passage and harvested using 0.05% Trypsin-EDTA (Thermo Fisher Scientific, Waltham, Mass.). To induce NaV1.7, cells were induced with tetracycline (0.1-1 μg/mL, IBI Scientific, Peosta, Iowa) the day before recording.
(§2) Before experiments, cells were washed with DPBS (VWR, Radnor, Pa.), digested with Detachin (VWR Radnor, Pa.) and then triturated 10 times in CHO Serum-Free Media (VWR Radnor, Pa.) to resuspend the cells and to break apart cell aggregates. Cells were counted and the final concentration was set at 2-5 million cells per mL.
(§3) The intracellular solution contained the following: 140 mM CsF, 1 mM/5 mM EGTA/CsOH, 10 mM HEPES, 10 mM NaCl, adjusted to pH 7.3 with CsOH, and osmolality to 320 with sucrose. The external solution contained the following: 145 mM NaCl, 4 mM KCl, 1 mM MgCl2, 2 mM CaCl2, 10 mM HEPES, 10 mM Glucose, adjusted to pH 7.4 with CsOH and osmolality to 305 with sucrose. All chemicals are from Sigma-Aldrich, St. Louis, Mo. In order to test the degree of internal block by test compounds, the compounds were dissolved in internal solution at the indicated test concentration. […] In order to test the degree of external block by test compounds the compounds were dissolved in external solution at the indicated test concentration.
(§4) Automated Patch Clamps were performed on Qube 384 (Sophion Bioscience, Woburn Mass.) with multihole Qchips at a temperature setting of 22 degrees. The whole cells configuration was formed with default Qube seal and break-in parameter. The membrane potential was held at −100 mV before the voltage protocol began. Two voltage protocols were followed.
(§5) Step 1: Cells were held at −100 mV with a depolarized pulse to −20 mV for 10 ms, the interval was set at 5 s. Currents were corrected by default leak subtraction from every pulse. The duration was set at 5 mins.
(§6) Step 2: Cells were held at −100 mV with a depolarized pulse to −20 mV for 10 ms. The frequency was 5 Hz. Currents were corrected by leak subtraction calculated before step 2. The duration was set at 4 mins.
After Step 2, the Qchip was removed from the recording chamber. The internal solution was changed with solutions containing test compounds. Qchips were held at −100 mV without pulsing after being replaced in the recording chamber. The total solution switching time was 8 minutes. After the internal solution exchange, Cells were recorded and step 2 for repeated for 10 minutes.
Data analysis was performed by Sophion Analyzer. Cells were filtered with minimum 50 MOhm seal resistance and minimum 5 nA starting current. The rundown of the currents was corrected with control cells (Non-Drug). The remaining was calculated by averaging last 3 points in the end of experiments. The base line was calculated as the average of last 3 points of Step 2. IC50 curves were plotted with DR-plots/Hill function (a dose-response plot with a Hill fit). Data analysis was performed by Sophion Analyzer.

Series [5] concerns the target T1, NaV1.7. Nature of the series: Automated patch clamp (Qube 384), external block of NaV1.7 in HEK293 cells. The following applies: compound in external solution, read-out: Nav1.7 Extracellular Inhibition (IC50). It is filed as cell-based. How it is done:
as §1, §2, §3, §4, §5, §6
After Step 2, the external solution was changed with solutions containing test compounds. Qchips were held at −100 mV without pulsing. The total solution switching time was 8 minutes. After the external solution exchange, cells were recorded using the same procedure as step 2 for 10 minutes.
Data analysis was performed by Sophion Analyzer. Data were corrected with control cells (Non-Drug). The IC50 data were plotted with DR-plots/Hill function (a dose-response plot with a Hill fit).

T1 sequence (Q15858 whole entry): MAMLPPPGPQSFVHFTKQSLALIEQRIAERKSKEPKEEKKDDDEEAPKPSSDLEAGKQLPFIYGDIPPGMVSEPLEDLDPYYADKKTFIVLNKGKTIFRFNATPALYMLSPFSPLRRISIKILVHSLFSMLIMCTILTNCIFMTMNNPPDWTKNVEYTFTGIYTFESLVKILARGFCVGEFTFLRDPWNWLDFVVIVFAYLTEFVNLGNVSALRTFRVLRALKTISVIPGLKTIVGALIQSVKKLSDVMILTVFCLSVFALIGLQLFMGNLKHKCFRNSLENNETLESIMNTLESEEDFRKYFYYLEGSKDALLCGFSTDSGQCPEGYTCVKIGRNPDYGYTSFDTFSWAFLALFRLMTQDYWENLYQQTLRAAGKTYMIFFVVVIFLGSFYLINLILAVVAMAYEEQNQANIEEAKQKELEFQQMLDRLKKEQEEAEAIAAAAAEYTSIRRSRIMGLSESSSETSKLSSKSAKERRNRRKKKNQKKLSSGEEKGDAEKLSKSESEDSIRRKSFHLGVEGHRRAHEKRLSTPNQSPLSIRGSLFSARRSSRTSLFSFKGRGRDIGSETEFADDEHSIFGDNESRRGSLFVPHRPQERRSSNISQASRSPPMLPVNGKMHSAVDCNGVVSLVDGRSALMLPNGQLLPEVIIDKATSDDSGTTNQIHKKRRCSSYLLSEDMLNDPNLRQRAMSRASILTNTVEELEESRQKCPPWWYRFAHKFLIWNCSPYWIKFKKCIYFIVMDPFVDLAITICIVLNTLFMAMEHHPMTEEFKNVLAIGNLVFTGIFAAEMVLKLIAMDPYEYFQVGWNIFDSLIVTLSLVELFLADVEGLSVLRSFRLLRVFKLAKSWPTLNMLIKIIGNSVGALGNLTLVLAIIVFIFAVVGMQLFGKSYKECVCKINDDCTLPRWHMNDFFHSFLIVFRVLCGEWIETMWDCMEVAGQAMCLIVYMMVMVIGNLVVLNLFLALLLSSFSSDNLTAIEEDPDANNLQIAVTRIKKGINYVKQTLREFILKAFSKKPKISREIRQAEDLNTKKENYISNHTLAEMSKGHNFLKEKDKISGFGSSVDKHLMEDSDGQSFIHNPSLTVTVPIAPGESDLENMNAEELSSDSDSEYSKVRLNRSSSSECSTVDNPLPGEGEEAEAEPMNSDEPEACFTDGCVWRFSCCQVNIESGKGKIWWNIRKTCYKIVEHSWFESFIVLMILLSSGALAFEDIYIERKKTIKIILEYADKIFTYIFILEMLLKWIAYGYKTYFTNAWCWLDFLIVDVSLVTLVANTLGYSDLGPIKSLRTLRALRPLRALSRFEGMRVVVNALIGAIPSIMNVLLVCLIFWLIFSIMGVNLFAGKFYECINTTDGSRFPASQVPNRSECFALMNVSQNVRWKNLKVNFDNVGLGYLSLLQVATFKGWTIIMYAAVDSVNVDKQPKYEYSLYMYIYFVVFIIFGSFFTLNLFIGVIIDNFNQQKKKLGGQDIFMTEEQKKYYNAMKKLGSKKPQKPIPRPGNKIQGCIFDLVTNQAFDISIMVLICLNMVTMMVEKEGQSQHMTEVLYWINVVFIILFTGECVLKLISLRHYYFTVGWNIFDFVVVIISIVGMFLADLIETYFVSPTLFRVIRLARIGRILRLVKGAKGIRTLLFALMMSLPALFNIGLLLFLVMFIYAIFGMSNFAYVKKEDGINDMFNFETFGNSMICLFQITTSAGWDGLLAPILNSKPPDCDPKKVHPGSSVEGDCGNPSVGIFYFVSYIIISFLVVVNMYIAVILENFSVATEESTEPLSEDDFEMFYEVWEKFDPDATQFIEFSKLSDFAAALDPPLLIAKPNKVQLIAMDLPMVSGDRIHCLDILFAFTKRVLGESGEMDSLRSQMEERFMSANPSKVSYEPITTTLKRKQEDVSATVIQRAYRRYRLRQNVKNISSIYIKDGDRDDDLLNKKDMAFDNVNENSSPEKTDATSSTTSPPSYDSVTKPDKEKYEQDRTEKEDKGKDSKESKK

For orientation: inhibition means the share of the control response that was lost under treatment. For `CCc1ccc[n+](CC(=O)Nc2c(C)cccc2C)c1.[Br-]` [Compound 17A], at NaV1.7 [1], the inhibition at 10 µM was in the range of 70 to 95% and the inhibition at 32 µM lay within 70 to 95%. For the same molecule, the inhibition at 30 µM at NaV1.7 [2] is less than 40%. The “PAMPA (10^−6 cm/s)” value in series [3] was “+ (<0.1 10^−6 cm/s)”.
Turning to `Cc1cccc(C)c1NC(=O)C[n+]1cccc(-c2ccccc2)c1.[Br-]` [Compound 12A, 1-(2-((2,6-dimethylphenyl)amino)-2-oxoethyl)-3-phenylpyridin-1-ium bromide], on NaV1.7 [1], the inhibition at 10 µM is more than 95% and the inhibition at 32 µM is more than 95%. Besides, the inhibition at 30 µM at NaV1.7 [2] was less than 40%. For the same molecule, in series [3], the “PAMPA (10^−6 cm/s)” value is listed as “+ (<0.1 10^−6 cm/s)”.
With `CCOC(=O)c1ccc[n+](CC(=O)Nc2c(C)cccc2C)c1.[Br-]` [Compound 25A], the inhibition at 10 µM at NaV1.7 [1] is 70 to 95%. Moreover, the inhibition at 30 µM on NaV1.7 [2] lay within 40 to 70%. In addition, the “PAMPA (10^−6 cm/s)” value in series [3] is reported as “+ (<0.1 10^−6 cm/s)”.
As a reminder, the IC50 is the concentration at which inhibition is half-maximal. `CCOC(=O)CCn1ccc[n+]1CC(=O)Nc1c(C)cccc1C` [Compound 80]: the IC50 at NaV1.7 [4] was 1 to 3 µM; on NaV1.7 [5] it was more than 100 µM. In series [3], the “PAMPA (10^−6 cm/s)” value is “+ (<0.1 10^−6 cm/s)”.
For `Cc1cccc(C)c1NC(=O)C[n+]1cccc(C(C)C)c1` [Compound 31], in that order: 1 to 3 µM, more than 100 µM and “++ (0.1-2.0 10^−6 cm/s)”.
For `CCOC(=O)Cn1ccc(C)[n+]1CC(=O)Nc1c(C)cccc1C` [Compound 85], in that order: 3 to 10 µM, more than 100 µM and “+ (<0.1 10^−6 cm/s)”.
For `Cc1cccc(C)c1NC(=O)C[n+]1cc(N)cc(C(F)(F)F)c1` [Compound 91], in that order: 3 to 10 µM, 30 to 100 µM and “+ (<0.1 10^−6 cm/s)”.
As to `CCOC(=O)Cn1c(C)cc[n+]1CC(=O)Nc1c(C)cccc1C` [Compound 86], the IC50 was 3 to 10 µM at NaV1.7 [4] and more than 100 µM at NaV1.7 [5]. Besides, the “PAMPA (10^−6 cm/s)” value in series [3] is “+ (<0.1 10^−6 cm/s)”.
For `Cc1cccc(C)c1NC(=O)C[n+]1c(C)ccn1C(C)C` [Compound 102], in that order: 1 to 3 µM, more than 100 µM and “+ (<0.1 10^−6 cm/s)”.
Turning to `Cc1cccc(C)c1NC(=O)C[n+]1c(C)cccc1C.[Br-]` [Compound 6A, 1-(2-((2,6-dimethylphenyl)amino)-2-oxoethyl)-2,6-dimethylpyridin-1-ium bromide], at NaV1.7 [1], the inhibition at 32 µM is more than 95%. The inhibition at 1000 µM on NaV1.7 [2] (% inhibition at test concentration 1,000 μM) is 40 to 70%. Also, the “PAMPA (10^−6 cm/s)” value in series [3] is “++ (0.1-2.0 10^−6 cm/s)”.
As for `Cc1cccc(C)c1NC(=O)C[n+]1ccccc1-c1ccccc1.[Br-]` [Compound 16A], on NaV1.7 [1], the inhibition at 10 µM was more than 95% and the inhibition at 32 µM was more than 95%. Further, the inhibition at 100 µM at NaV1.7 [2] (% inhibition at test concentration 100 μM) was less than 40%. In addition, the “PAMPA (10^−6 cm/s)” value in series [3] is “++ (0.1-2.0 10^−6 cm/s)”.
For `Cc1cccc(C)c1NC(=O)C[n+]1cccn1CCC(C)C` [Compound 74], the IC50 on NaV1.7 [4] is 3 to 10 µM; at NaV1.7 [5], more than 100 µM. In addition, the “PAMPA (10^−6 cm/s)” value in series [3] is “+ (<0.1 10^−6 cm/s)”.
For `Cc1cccc(C)c1NC(=O)C[n+]1cccn1C1CCC1` [Compound 72], in that order: 3 to 10 µM, more than 100 µM and “+ (<0.1 10^−6 cm/s)”.
For the molecule `CCc1cccc[n+]1CC(=O)Nc1c(C)cccc1C.[Br-]` [Compound 13A], the inhibition at 32 µM on NaV1.7 [1] lay in the range of 70 to 95%. Moreover, the inhibition at 30 µM at NaV1.7 [2] is less than 40%. Further, in series [3], the “PAMPA (10^−6 cm/s)” value is “+ (<0.1 10^−6 cm/s)”.
As for `Cc1cccc(C)c1NC(=O)C[n+]1cccc(OC(C)C)c1` [Compound 87], the values for the IC50 on NaV1.7 [4] and on NaV1.7 [5] were less than 1 µM and more than 100 µM, respectively. For the same molecule, in series [3], the “PAMPA (10^−6 cm/s)” value is “+ (<0.1 10^−6 cm/s)”.
